Results from the supplement of paper PMC10307832.

Tests used:
Test in all cases: relative viability (nuclei count vs DMSO), 5 days (fraction); higher = more cells survive
NCI-H727 = system: NCI-H727
Method in brief: (§1)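 Relative viability was taken as the ratio of nuclei in treated wells to nuclei in vehicle wells. Lung cancer cell lines in 1536-well plates received compounds by pin tool one day after seeding, either one drug alone or a fixed anchor-drug dose plus five library-drug doses (not always all listed) in √10 steps. Nuclei were counted on 4× images after 5 days of treatment, and values are medians of duplicate plates.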

EMC-BAC-2 = system: EMC-BAC-2
Method in brief: as §1

NCI-H1650 = system: NCI-H1650
Method in brief: as §1

NCI-H1734 = system: NCI-H1734
Method in brief: as §1

EKVX = system: EKVX
Method in brief: as §1

COR-L 105 = system: COR-L 105
Method in brief: as §1

NCI-H2126 = system: NCI-H2126
Method in brief: as §1

LK-2 = system: LK-2
Method in brief: as §1

EPLC-272H = system: EPLC-272H
Method in brief: as §1

NCI-H1944 = system: NCI-H1944
Method in brief: as §1

NCI-H1792 = system: NCI-H1792
Method in brief: as §1

SW 1573 = system: SW 1573
Method in brief: as §1

BEN = system: BEN
Method in brief: as §1

HCC-78 = system: HCC-78
Method in brief: as §1

HCC-827 = system: HCC-827
Method in brief: as §1

RERF-LC-KJ = system: RERF-LC-KJ
Method in brief: as §1

NCI-H2087 = system: NCI-H2087
Method in brief: as §1

LCLC-97TM1 = system: LCLC-97TM1
Method in brief: as §1

LOU-NH91 = system: LOU-NH91
Method in brief: as §1

LU99A = system: LU99A
Method in brief: as §1

SK-MES-1 = system: SK-MES-1
Method in brief: as §1

NCI-H358 = system: NCI-H358
Method in brief: as §1

ChaGo-K-1 = system: ChaGo-K-1
Method in brief: as §1

`Cc1cnc(-c2cnc(NCCNc3ccc(C#N)cn3)nc2-c2ccc(Cl)cc2Cl)[nH]1` + Nc1ncn([C@H]2C[C@H](O)[C@@H](CO)O2)c(=O)n1 [Decitabine] (partner 2 µM) showed a relative viability (NCI-H727; first compound 0.08 µM) of 0.867, a relative viability (NCI-H727; first compound 0.253 µM) of 0.937 and a relative viability (NCI-H727; first compound 0.8 µM) of 0.838. It also gave a relative viability (NCI-H727; first compound 2.53 µM) of 0.766, a relative viability (EMC-BAC-2; first compound 0.08 µM) of 1.15 and a relative viability (EMC-BAC-2; first compound 0.253 µM) of 0.911. The relative viability (EMC-BAC-2; first compound 0.8 µM) was 0.912, the relative viability (EMC-BAC-2; first compound 2.53 µM) was 0.995 and the relative viability (NCI-H1650; first compound 0.08 µM) was 0.478. It also gave a relative viability (NCI-H1650; first compound 0.253 µM) of 0.259, a relative viability (NCI-H1650; first compound 0.8 µM) of 0.397 and a relative viability (NCI-H1650; first compound 2.53 µM) of 0.443. It also gave a relative viability (NCI-H1734; first compound 0.08 µM) of 0.514, a relative viability (NCI-H1734; first compound 0.253 µM) of 0.453 and a relative viability (NCI-H1734; first compound 0.8 µM) of 0.544. The relative viability (NCI-H1734; first compound 2.53 µM) was 0.567, the relative viability (EKVX; first compound 0.08 µM) was 0.386 and the relative viability (EKVX; first compound 0.253 µM) was 0.315. It also gave a relative viability (EKVX; first compound 0.8 µM) of 0.34, a relative viability (EKVX; first compound 2.53 µM) of 0.351 and a relative viability (COR-L 105; first compound 0.08 µM) of 0.639. It also gave a relative viability (COR-L 105; first compound 0.253 µM) of 0.619, a relative viability (COR-L 105; first compound 0.8 µM) of 0.707 and a relative viability (COR-L 105; first compound 2.53 µM) of 0.49. It also gave a relative viability (NCI-H2126; first compound 0.08 µM) of 0.585, a relative viability (NCI-H2126; first compound 0.253 µM) of 0.602 and a relative viability (NCI-H2126; first compound 0.8 µM) of 0.539. The relative viability (NCI-H2126; first compound 2.53 µM) was 0.58, the relative viability (LK-2; first compound 0.08 µM) was 0.27 and the relative viability (LK-2; first compound 0.253 µM) was 0.275. It also gave a relative viability (LK-2; first compound 0.8 µM) of 0.323, a relative viability (LK-2; first compound 2.53 µM) of 0.395 and a relative viability (EPLC-272H; first compound 0.08 µM) of 0.436. It also gave a relative viability (EPLC-272H; first compound 0.253 µM) of 0.353, a relative viability (EPLC-272H; first compound 0.8 µM) of 0.352 and a relative viability (EPLC-272H; first compound 2.53 µM) of 0.467. It also gave a relative viability (NCI-H1944; first compound 0.08 µM) of 0.476, a relative viability (NCI-H1944; first compound 0.8 µM) of 0.5 and a relative viability (NCI-H1944; first compound 2.53 µM) of 0.402. It also gave a relative viability (NCI-H1792; first compound 0.08 µM) of 0.564, a relative viability (NCI-H1792; first compound 0.253 µM) of 0.476 and a relative viability (NCI-H1792; first compound 0.8 µM) of 0.542. For the same compound, the relative viability (NCI-H1792; first compound 2.53 µM) was 0.469, the relative viability (SW 1573; first compound 0.08 µM) was 0.583 and the relative viability (SW 1573; first compound 0.253 µM) was 0.457. It also gave a relative viability (SW 1573; first compound 0.8 µM) of 0.474, a relative viability (SW 1573; first compound 2.53 µM) of 0.354 and a relative viability (BEN; first compound 0.08 µM) of 0.768. The relative viability (BEN; first compound 0.253 µM) was 0.716, the relative viability (BEN; first compound 0.8 µM) was 0.663 and the relative viability (BEN; first compound 2.53 µM) was 0.8. For the same compound, the relative viability (HCC-78; first compound 0.08 µM) was 0.692, the relative viability (HCC-78; first compound 0.253 µM) was 0.507 and the relative viability (HCC-78; first compound 0.8 µM) was 0.767. The relative viability (HCC-78; first compound 2.53 µM) was 0.731, the relative viability (HCC-827; first compound 0.08 µM) was 0.328 and the relative viability (HCC-827; first compound 0.253 µM) was 0.299. It also gave a relative viability (HCC-827; first compound 0.8 µM) of 0.326, a relative viability (HCC-827; first compound 2.53 µM) of 0.287 and a relative viability (RERF-LC-KJ; first compound 0.08 µM) of 0.713. The relative viability (RERF-LC-KJ; first compound 0.253 µM) was 0.702, the relative viability (RERF-LC-KJ; first compound 0.8 µM) was 0.66 and the relative viability (RERF-LC-KJ; first compound 2.53 µM) was 0.599. It also gave a relative viability (NCI-H2087; first compound 0.08 µM) of 0.282, a relative viability (NCI-H2087; first compound 0.8 µM) of 0.286 and a relative viability (NCI-H2087; first compound 2.53 µM) of 0.204. The relative viability (LCLC-97TM1; first compound 0.08 µM) was 0.213, the relative viability (LCLC-97TM1; first compound 0.253 µM) was 0.248 and the relative viability (LCLC-97TM1; first compound 0.8 µM) was 0.235. The relative viability (LCLC-97TM1; first compound 2.53 µM) was 0.227, the relative viability (LOU-NH91; first compound 0.08 µM) was 0.818 and the relative viability (LOU-NH91; first compound 0.253 µM) was 0.799. The relative viability (LOU-NH91; first compound 0.8 µM) was 0.852, the relative viability (LOU-NH91; first compound 2.53 µM) was 0.802 and the relative viability (LU99A; first compound 0.08 µM) was 0.954. For the same compound, the relative viability (LU99A; first compound 0.253 µM) was 0.873, the relative viability (LU99A; first compound 0.8 µM) was 0.938 and the relative viability (LU99A; first compound 2.53 µM) was 0.775. For the same compound, the relative viability (SK-MES-1; first compound 0.08 µM) was 0.378, the relative viability (SK-MES-1; first compound 0.253 µM) was 0.35 and the relative viability (SK-MES-1; first compound 0.8 µM) was 0.393. The relative viability (SK-MES-1; first compound 2.53 µM) was 0.406, the relative viability (NCI-H358; first compound 0.08 µM) was 0.234 and the relative viability (NCI-H358; first compound 0.253 µM) was 0.208. For the same compound, the relative viability (NCI-H358; first compound 0.8 µM) was 0.248, the relative viability (NCI-H358; first compound 2.53 µM) was 0.213 and the relative viability (ChaGo-K-1; first compound 0.08 µM) was 0.546. The relative viability (ChaGo-K-1; first compound 0.253 µM) was 0.485, the relative viability (ChaGo-K-1; first compound 0.8 µM) was 0.499 and the relative viability (ChaGo-K-1; first compound 2.53 µM) was 0.466.
